# Measurements taken from US9850206B2, “S1P and/or ATX modulating agents” (BIOGEN MA INC., priority 2012, dated 2017).
# Read-outs that look alike come from different tables or passages of the source.
# Columns and labels:
# S1P1 = S1P1 (Homo sapiens, UniProt P21453); assay: S1P receptor activity assay (calcium flux, FLIPR TETRA), S1P1; assay type: cell-based
# Source text: (§1) Agonist percentage activation determinations were obtained by assaying sample compounds and referencing the Emax control for each receptor profiled. Antagonist percentage inhibition determinations were obtained by assaying sample compounds and referencing the control EC80 wells for each receptor profiled. The samples were run using a “Single Addition” assay protocol for the agonist and antagonist assay run. The protocol design was as follows:
# (§2) Master stock solution: Unless specified otherwise, all sample compounds were diluted in 100% anhydrous DMSO including all serial dilutions. All control wells contained identical solvent final concentrations as did the sample compound wells.
# (§3) Compound plate for assay: The sample compounds were transferred from a master stock solution into a daughter plate that was used in the assay. Each sample compound was diluted into assay buffer (1×HBSS with 20 mM HEPES and 2.5 mM Probenecid) at an appropriate concentration to obtain final concentrations.
# (§4) Sample compounds were plated in an eight-point, four-fold dilution series in duplicate with a top concentration of 10 μM. The concentrations described here reflect the final concentration of the compounds during the antagonist assay.
# (§5) Reference agonists were handled as mentioned above serving as assay control. The reference agonists were handled as described above for Emax.
# (§6) Assay was read for 180 seconds using the […] (This assay run added sample compounds and reference agonist to respective wells). At the completion of the first “Single Addition” assay run, assay plate was removed from the […] and placed at 25° C. for seven (7) minutes.
# (§7) Using the EC80 values determined during the agonist assay, stimulated all pre-incubated sample compound and reference antagonist (if applicable) wells with EC80 of reference agonist. Read for 180 seconds using the […] (This assay added reference agonist to respective wells—then fluorescence measurements were collected to calculate percentage inhibition values).
# (§8) All plates were subjected to appropriate baseline corrections. Once baseline corrections were processed, maximum fluorescence values were exported and data manipulated to calculate percentage activation, percentage inhibition and Z′.
# S1P4 = target: T1, S1P4 (Homo sapiens, UniProt O95977); assay: S1P receptor activity assay (calcium flux, FLIPR TETRA), S1P4; assay type: cell-based
# T1 sequence (O95977 1-384): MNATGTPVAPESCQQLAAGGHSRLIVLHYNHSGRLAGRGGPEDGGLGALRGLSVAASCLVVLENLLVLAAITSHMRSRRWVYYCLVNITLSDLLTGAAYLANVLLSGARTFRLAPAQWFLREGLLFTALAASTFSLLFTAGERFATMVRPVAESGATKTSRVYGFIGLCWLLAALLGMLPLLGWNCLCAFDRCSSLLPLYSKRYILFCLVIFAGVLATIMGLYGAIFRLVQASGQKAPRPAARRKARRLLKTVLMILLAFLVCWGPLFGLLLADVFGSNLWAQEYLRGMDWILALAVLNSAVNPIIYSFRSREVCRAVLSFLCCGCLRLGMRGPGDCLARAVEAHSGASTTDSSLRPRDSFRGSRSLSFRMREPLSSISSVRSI
# Source text: as §1, §2, §3, §4, §5, §6, §7, §8
# Human ATX protein = target: T2, Human ATX protein (Homo sapiens, UniProt Q13822); assay: Autotaxin (ATX) FRET assay with FS-3 substrate; assay type: biochemical
# T2 construct: made in house
# Source text: ATX (Autotaxin) is a 125 KDa glycoprotein with lysophospholipase D (LPLD) activity that generates the bioactive lipid lysophosphatidic acid (LPA) from lysophosphatidylcholine (LPC). The ATX biochemical assay utilizes a FRET (fluorescence resonance energy transfer) technology platform. […] ATX catalyzes the hydrolysis of the substrate which separates the dabsyl quencher from the fluorescein reporter, which becomes fluorescent. The reaction is monitored by a SpectraMax M5 (Molecular Devices, Sunnyvale, Calif.) with at excitation wavelength 485 nm and emission wavelength 535 nm.
# Fatty acid free-BSA (Sigma A8806): 10 mg/mL in H2O, stored at 4° C.
# 2×ATX assay buffer: 100 mM Tris, 280 mM NaCl, 10 mM KCl, 2 mM CaCl2, 2 mM MgCl2, pH 7.4.
# Human ATX protein: expressed and purified in house. Stored at −80° C.
# Substrate FS-3 (Echelon, L-2000): 100 μg in 77.74 μL H2O (1 mM stock), stored at −20° C.
# Compound dilution—All compounds were provided at 10 mM in 100% DMSO. In the first well, 2 μL of 10 mM compound was added to 78 μL of DMSO (1:40 dilution). In subsequent wells 3-fold dilution (total 10 dilutions) were performed.
# 1×ATX assay buffer was made up with a final concentration of 1 mg/mL fatty acid free-BSA using 2×ATX assay buffer, 10 mg/ml fatty acid free-BSA and ddH2O.
# 38 μL was added per well to the assay plate. The final concentration of ATX in the reaction as 1.0 μg/mL.
# 2 μL per well of compounds was transferred to provide the desired concentration. The plate was centrifuged, then incubated at room temperature for 30 minutes on the shaker.
# FS-3 was diluted with 1×ATX assay buffer to a concentration of FS-3 of 10 μM (5×). Then, 10 μL was added per well to the assay plate. The final concentration of FS-3 in the reaction was 2 μM. The plate was centrifuged. The plate was kept shaking at room temperature for 2 hours. Because FS-3 substrate is light sensitive, plates were kept covered and protected from light.
# S1P5 = S1P5 (Homo sapiens, UniProt Q9H228); assay: S1P receptor activity assay (calcium flux, FLIPR TETRA), S1P5; assay type: cell-based
# Chain of S1P5 (Q9H228 whole entry): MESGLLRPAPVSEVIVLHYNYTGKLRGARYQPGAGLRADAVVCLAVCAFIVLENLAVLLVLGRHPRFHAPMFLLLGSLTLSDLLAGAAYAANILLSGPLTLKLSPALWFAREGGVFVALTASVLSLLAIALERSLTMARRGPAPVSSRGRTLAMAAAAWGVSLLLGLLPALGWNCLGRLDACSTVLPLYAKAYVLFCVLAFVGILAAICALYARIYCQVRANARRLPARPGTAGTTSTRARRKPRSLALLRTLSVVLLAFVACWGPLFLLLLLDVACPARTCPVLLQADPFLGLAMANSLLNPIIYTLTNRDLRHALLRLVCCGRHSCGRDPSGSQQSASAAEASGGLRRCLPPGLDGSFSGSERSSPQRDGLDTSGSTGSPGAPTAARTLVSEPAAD
# Source text: as §1, §2, §3, §4, §5, §6, §7, §8
# [1] = calcium flux, top concentration 10 μM, the >5 μM sentence says only 'for S1P1', read-out: IC50 for S1P1 agonist activity
# [2] = calcium flux, top concentration 10 μM, the >5 μM sentence says only 'for S1P4', read-out: IC50 for S1P4 agonist activity
# [3] = FS-3 2 μM, ATX 1.0 μg/mL, 2 hours at room temperature, read-out: IC50 (ATX)
# [4] = calcium flux, top concentration 10 μM, read-out: IC50 for S1P5
# Chain of S1P1 (P21453 whole entry): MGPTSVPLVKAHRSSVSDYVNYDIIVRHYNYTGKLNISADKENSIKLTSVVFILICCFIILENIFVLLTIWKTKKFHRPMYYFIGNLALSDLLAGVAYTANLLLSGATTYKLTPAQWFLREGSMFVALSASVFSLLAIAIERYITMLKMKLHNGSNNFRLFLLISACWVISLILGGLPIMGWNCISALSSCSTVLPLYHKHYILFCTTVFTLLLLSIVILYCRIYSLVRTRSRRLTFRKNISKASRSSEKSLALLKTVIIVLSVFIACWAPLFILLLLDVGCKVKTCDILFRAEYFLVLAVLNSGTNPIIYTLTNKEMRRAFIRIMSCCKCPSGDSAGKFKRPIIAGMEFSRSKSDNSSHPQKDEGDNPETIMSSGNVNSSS
Compound,IC50 (S1P1; [1]) [µM],IC50 (S1P4; [2]) [µM],IC50 (Human ATX protein; [3]) [µM],IC50 (S1P5; [4]) [µM],IC50 (S1P1) [µM],IC50 (S1P4) [µM],IC50 (Human ATX protein) [µM],IC50 (S1P5) [µM]
"CCCCCCCCOc1ccc(N2CCN(CCC(=O)O)CC2)nn1 [Example 20, 3-(4-(6-(Octyloxy)pyridazin-3-yl)piperazin-1-yl)propanoic acid]",> 5,2 to 5,5 to 10,> 5,–,–,–,–
"CC[C@H]1CC[C@H](Oc2ccc(C3=CCN(CCC(=O)O)CC3)cc2)CC1 [Example 27, 3-(4-(4-((trans-4-Ethylcyclohexyl)oxy)phenyl)-5,6-dihydropyridin-1(2H)-yl)propanoic acid]",–,–,5 to 10,> 5,> 5,> 5,–,–
"CC[C@H]1CC[C@H](Oc2ccc(C3CCN(CCC(=O)O)CC3)cc2)CC1 [Example 28, 3-(4-(4-((trans-4-ethylcyclohexyl)oxy)phenyl)piperidin-1-yl)propanoic acid]",> 5,> 5,> 10,> 5,–,–,–,–
"CC[C@H]1CC[C@H](Oc2ccc(C3=CCN(CCCC(=O)O)CC3)cc2)CC1 [Example 29, 4-(4-(4-((trans-4-Ethylcyclohexyl)oxy)phenyl)-5,6-dihydropyridin-1(2H)-yl)butanoic acid]",–,–,> 10,> 5,> 5,≤ 2,–,–
"CC[C@H]1CC[C@H](Oc2ccc(C3CCN(CCCC(=O)O)CC3)cc2)CC1 [Example 30, 4-(4-(4-((trans-4-Ethylcyclohexyl)oxy)phenyl)piperidin-1-yl)butanoic acid]",> 5,≤ 2,> 10,> 5,–,–,–,–
"CC[C@H]1CC[C@H](Oc2ccc(C3=CCN(CCCCC(=O)O)CC3)cc2)CC1 [Example 31, 5-(4-(4-((trans-4-Ethylcyclohexyl)oxy)phenyl)-5,6-dihydropyridin-1(2H)-yl)pentanoic acid]",–,–,> 10,> 5,> 5,≤ 2,–,–
"CC[C@H]1CC[C@@H](Oc2ccc(C3=CCN(CCC(=O)O)CC3)cc2)CC1 [Example 33, 3-(4-(4-((cis-4-Ethylcyclohexyl)oxy)phenyl)-5,6-dihydropyridin-1(2H)-yl)propanoic acid]",–,–,–,–,> 5,≤ 2,> 10,> 5
"CC[C@H]1CC[C@@H](Oc2ccc(C3CCN(CCC(=O)O)CC3)cc2)CC1 [Example 34, 3-(4-(4-((cis-4-Ethylcyclohexyl)oxy)phenyl)piperidin-1-yl)propanoic acid]",> 5,> 5,> 10,> 5,–,–,–,–
"CC[C@H]1CC[C@@H](Oc2ccc(C3=CCN(CCCC(=O)O)CC3)cc2)CC1 [Example 35, 4-(4-(4-((cis-4-Ethylcyclohexyl)oxy)phenyl)-5,6-dihydropyridin-1(2H)-yl)butanoic acid]",–,–,> 10,> 5,> 5,≤ 2,–,–
"CC[C@H]1CC[C@@H](Oc2ccc(C3=CCN(CCCCC(=O)O)CC3)cc2)CC1 [Example 37, 5-(4-(4-((cis-4-Ethylcyclohexyl)oxy)phenyl)-5,6-dihydropyridin-1(2H)-yl)pentanoic acid]",–,–,≤ 5,2 to 5,≤ 2,≤ 2,–,–
"CC[C@H]1CC[C@@H](Oc2ccc(C3CCN(CCCCC(=O)O)CC3)cc2)CC1 [Example 38, 5-(4-(4-((cis-4-Ethylcyclohexyl)oxy)phenyl)piperidin-1-yl)pentanoic acid]",2 to 5,≤ 2,> 10,> 5,–,–,–,–
"O=C(O)CCN1CC=C(c2ccc(OC3CCC4(CCCC4)CC3)cc2)CC1 [Example 39, 3-(4-(4-(Spiro[4.5]decan-8-yloxy)phenyl)-5,6-dihydropyridin-1(2H)-yl)propanoic acid]",–,–,–,–,> 5,2 to 5,> 10,> 5
"O=C(O)CCCN1CC=C(c2ccc(OC3CCC4(CCCC4)CC3)cc2)CC1 [Example 41, 4-(4-(4-(Spiro[4.5]decan-8-yloxy)phenyl)-5,6-dihydropyridin-1(2H)-yl)butanoic acid]",> 5,2 to 5,≤ 5,2 to 5,–,–,–,–
"O=C(O)CCCCN1CC=C(c2ccc(OC3CCC4(CCCC4)CC3)cc2)CC1 [Example 43, 5-(4-(4-(Spiro[4.5]decan-8-yloxy)phenyl)-5,6-dihydropyridin-1(2H)-yl)pentanoic acid]",–,–,> 10,> 5,> 5,2 to 5,–,–

# Further lines, with some results ahead:
IC50 (S1P1; [1]) [µM],IC50 (S1P4; [2]) [µM],IC50 (Human ATX protein; [3]) [µM],IC50 (S1P5; [4]) [µM],Compound,IC50 (S1P1) [µM],IC50 (S1P4) [µM],IC50 (Human ATX protein) [µM],IC50 (S1P5) [µM]
> 5,≤ 2,≤ 5,> 5,"CC(C)(C)[C@H]1CC[C@H](Oc2ccc(N3CCN(CC45CCC(C(=O)O)(CC4)CC5)CC3)cc2)CC1 [Example 19, 4-((4-(4-((trans-4-(tert-Butyl)cyclohexyl)oxy)phenyl)piperazin-1-yl)methyl)bicyclo[2.2.2]octane-1-carboxylic acid]",–,–,–,–
> 5,≤ 2,5 to 10,> 5,"CCCCCCCCOc1cnc(N2CCN(CCC(=O)O)CC2)nc1 [Example 21, 3-(4-(5-(Octyloxy)pyrimidin-2-yl)piperazin-1-yl)propanoic acid]",–,–,–,–
> 5,2 to 5,5 to 10,> 5,"CCCCCCCCOc1ccc(C2CCCN(C3CCC(C(=O)O)CC3)C2)cc1 (stereo not drawn) [Example 26, 4-(3-(4-(Octyloxy)phenyl)piperidin-1-yl)cyclohexanecarboxylic acid]",–,–,–,–
> 5,> 5,≤ 5,> 5,"CC[C@H]1CC[C@H](Oc2ccc(C3CCN(CCCCC(=O)O)CC3)cc2)CC1 [Example 32, 5-(4-(4-((trans-4-Ethylcyclohexyl)oxy)phenyl)piperidin-1-yl)pentanoic acid]",–,–,–,–
> 5,2 to 5,5 to 10,> 5,"CC[C@H]1CC[C@@H](Oc2ccc(C3CCN(CCCC(=O)O)CC3)cc2)CC1 [Example 36, 4-(4-(4-((cis-4-Ethylcyclohexyl)oxy)phenyl)piperidin-1-yl)butanoic acid]",–,–,–,–
2 to 5,≤ 2,≤ 5,≤ 2,"O=C(O)CCN1CCC(c2ccc(OC3CCC4(CCCC4)CC3)cc2)CC1 [Example 40, 3-(4-(4-(Spiro[4.5]decan-8-yloxy)phenyl)piperidin-1-yl)propanoic acid]",–,–,–,–
> 5,2 to 5,5 to 10,> 5,"O=C(O)CCCN1CCC(c2ccc(OC3CCC4(CCCC4)CC3)cc2)CC1 [Example 42, 4-(4-(4-(Spiro[4.5]decan-8-yloxy)phenyl)piperidin-1-yl)butanoic acid]",–,–,–,–
